Experimental data published in US7943618B2, “Btk protein kinase inhibitors” (Roche Palo Alto LLC, priority 2007, dated 2011).
pIC50: −log10 of the molar value.

Columns and labels:
[1] = biological target: T1, Btk enzyme (His-tagged, full-length) (Homo sapiens, UniProt Q06187); assay: Bruton's Tyrosine Kinase (Btk) Inhibition Assay (33P filtration capture); assay type: biochemical; conditions: Bruton's tyrosine kinase Assay (Example 34), 100 μM ATP
T1 construct: 5-10 nM Btk enzyme (His-tagged, full-length); His
From the text: Bruton's Tyrosine Kinase (Btk) Inhibition Assay
The assay is a capture of radioactive ^33P phosphorylated product through filtration. The interactions of Btk, biotinylated SH2 peptide substrate (Src homology), and ATP lead to phosphorylation of the peptide substrate. Biotinylated product is bound streptavidin sepharose beads. All bound, radiolabeled products are detected by scintillation counter.
Plates assayed are 96-well polypropylene (Greiner) and 96-well 1.2 μm hydrophilic PVDF filter plates (Millipore).
IC50 determinations are calculated from 10 data points per compound utilizing data produced from a standard 96-well plate assay template. One control compound and seven unknown inhibitors were tested on each plate and each plate was run twice. […] The control compound was staurosporine. Background was counted in the absence of peptide substrate. Total activity was determined in the presence of peptide substrate. The following protocol was used to determine Btk inhibition.
1) Sample preparation: The test compounds were diluted at half-log increments in assay buffer (imidazole, glycerol-2-phosphate, EGTA, MnCl2, MgCl2, BSA).
2) Bead preparation • a.) rinse beads by centrifuging at 500 g • b.) reconstitute the beads with PBS and EDTA to produce a 20% bead slurry
3) Pre-incubate reaction mix without substrate (assay buffer, DTT, ATP, ^33P ATP) and mix with substrate (assay buffer, DTT, ATP, ^33P ATP, peptide substrate) 30° C. for 15 min.
4) To start assay, pre-incubate 10 μL Btk in enzyme buffer (imidazole, glycerol-2-phosphate, BSA) and 10 μL of test compounds for 10 min at RT.
5) Add 30 μL reaction mixture without or with substrate to Btk and compounds.
6) Incubate 50 μL total assay mix for 30 min at 30° C.
7) Transfer 40 μL of assay to 150 μL bead slurry in filter plate to stop reaction.
8) Wash filter plate after 30 min, with following steps • a. 3×250 μL NaCl • b. 3×250 μL NaCl containing 1% phosphoric acid • c. 1×250 μL H2O
9) Dry plate for 1 h at 65° C. or overnight at RT
10) Add 50 μL microscint-20 and count ^33P cpm on scintillation counter.
Calculate percent activity from raw data in cpm percent activity=(sample−bkg)/(total activity−bkg)×100
Calculate IC50 from percent activity, using one-site dose response sigmoidal model y=A+((B−A)/(1+((x/C)^D))))

T1 sequence (Q06187 whole entry): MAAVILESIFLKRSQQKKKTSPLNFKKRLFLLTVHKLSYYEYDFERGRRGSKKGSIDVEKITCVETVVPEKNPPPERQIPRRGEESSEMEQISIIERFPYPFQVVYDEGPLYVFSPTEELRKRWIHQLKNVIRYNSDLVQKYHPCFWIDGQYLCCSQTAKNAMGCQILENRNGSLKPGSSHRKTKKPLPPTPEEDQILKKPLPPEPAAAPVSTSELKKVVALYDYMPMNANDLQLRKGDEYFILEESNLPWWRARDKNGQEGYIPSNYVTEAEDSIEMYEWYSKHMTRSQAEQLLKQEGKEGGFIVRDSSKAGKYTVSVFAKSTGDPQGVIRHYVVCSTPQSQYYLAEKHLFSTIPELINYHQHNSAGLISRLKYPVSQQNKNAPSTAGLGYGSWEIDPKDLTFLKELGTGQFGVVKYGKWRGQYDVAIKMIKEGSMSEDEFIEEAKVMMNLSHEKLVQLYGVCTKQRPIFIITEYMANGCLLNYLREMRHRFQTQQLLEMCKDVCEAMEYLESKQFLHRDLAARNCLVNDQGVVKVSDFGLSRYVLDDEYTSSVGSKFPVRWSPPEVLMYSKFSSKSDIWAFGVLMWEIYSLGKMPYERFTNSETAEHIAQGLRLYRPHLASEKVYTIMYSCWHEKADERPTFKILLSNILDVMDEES

Structure (SMILES) | melting point [°C] | pIC50 ([1]; Table II pyridinones) | pIC50 ([1]; Table I pyridazinones)
CNC(=O)Nc1cc(-c2cccc(NC(=O)N3Cc4ccc(F)cc4C3)c2C)cn(C)c1=O [II-14] | 262 to 263 | 5.71 | 
CNC(=O)Nc1cc(-c2cccc(NC(=O)c3cc4ccccc4s3)c2C)cn(C)c1=O [II-10] | 286 to 287 | 6.88 | 
Cc1c(NC(=O)c2ccc(C(C)(C)C)cc2)cccc1-c1cc(Nc2ccc(C(=O)N3CCOCC3)cc2)c(=O)n(C)n1 [Compound I-24] | 157 to 158 |  | 6.96
Cc1c(NC(=O)c2ccc(C(C)(C)C)cc2)cccc1-c1cc(Nc2ccnc(N3CCCC3)n2)c(=O)n(C)n1 [Compound I-21] | 193 to 195 |  | 6.45
Cc1c(NC(=O)c2ccc(C(C)(C)C)cc2)cccc1-c1cc(Nc2ccccn2)c(=O)n(C)n1 [Compound I-3] | 248.5 to 249.3 |  | 7.03
Cc1c(NC(=O)c2ccc(C(C)(C)C)cc2)cccc1-c1cc(Nc2ccnc(OCCN(C)C)n2)c(=O)n(C)n1 [Compound I-18] | 188 to 189 |  | 6.49
Cc1c(NC(=O)c2ccc(C(C)(C)C)cc2)cccc1-c1cc(NC(=O)NCC(F)(F)F)c(=O)n(C)c1 [II-7] | 258 to 259 | 6.06 | 
CCNC(=O)Nc1cc(-c2cccc(NC(=O)c3ccc(C(C)(C)C)cc3)c2C)nn(C)c1=O [Compound I-27] | 278 to 279 |  | 6.91
Cc1c(NC(=O)c2ccc(C(C)(C)C)cc2)cccc1-c1cc(NC(=O)NCCN(C)C)c(=O)n(C)c1 [II-16] | 164 to 165 | 6.89 | 
Cc1c(NC(=O)c2ccc(C(C)(C)C)cc2)cccc1-c1cc(NC(=O)NCCCN(C)C)c(=O)n(C)c1 [II-22] | 194 to 195 | 7.54 | 
Cc1c(NC(=O)c2ccc(C(C)(C)C)cc2)cccc1-c1cc(Nc2ccnc(N3CCC(CO)C3)n2)c(=O)n(C)n1 (stereo not drawn) [Compound I-20] | 210 to 211 |  | 6.90
Cc1c(NC(=O)N2CC(OC(C)(C)C)C2)cccc1-c1cc(Nc2ccc(C(=O)N3CCOCC3)cn2)c(=O)n(C)n1 [Compound I-10, 3-tert-Butoxy-azetidine-1-carboxylic acid(2-methyl-3-{1-methyl-5-[5-(morpholine-4-carbonyl) -pyridin-2-ylamino]-6-oxo-1,6-dihydro-pyridazin-3-yl}-phenyl)-amide] | 171 to 172 |  | 6.64
Cc1c(NC(=O)c2ccc(C(C)(C)C)cc2)cccc1-c1cc(Nc2ccnc(N3CCOCC3)n2)c(=O)n(C)n1 [Compound I-14] | 211 to 213 |  | 6.60
Cn1nc(-c2cccc(CC(=O)OCCOC(C)(C)C)c2)cc(Nc2ccc(C(=O)N3CCOCC3)cn2)c1=O [Compound I-36] | 80 to 81 |  | 5.66
CNC(=O)Nc1cc(-c2cccc(CC(=O)N3CC(CC(C)(C)O)C3)c2)cn(C)c1=O [II-47] | 113 to 114 | 4.26 | 
Cn1nc(-c2cccc(CC(=O)N3Cc4ccccc4C3)c2)cc(Nc2ccc(C(=O)N3CCOCC3)cn2)c1=O [Compound I-40] | 179 to 180 |  | 6.17
Cc1c(NC(=O)c2ccc(C(C)(C)C)cc2)cccc1-c1cc(NC(=O)NCCO)c(=O)n(C)c1 [II-18] | 220 to 221 | 7.42 | 
CSc1nccc(Nc2cc(-c3cccc(NC(=O)c4ccc(C(C)(C)C)cc4)c3C)nn(C)c2=O)n1 [Compound I-12] | 224 to 225 |  | 7.29
Cc1c(NC(=O)N2CCN(C(C)(C)C)CC2)cccc1-c1cc(Nc2ccc(C(=O)N3CCOCC3)cn2)c(=O)n(C)n1 [Compound I-6, 4-tert-Butyl-piperazine-1-carboxylic acid (2-methyl-3-{1-methyl-5-[5-(morpholine-4-carbonyl) -pyridin-2-ylamino]-6-oxo-1,6-dihydro-pyridazin-3-yl}-phenyl)-amide] | 166 to 169 |  | 4.81
CNC(=O)Nc1cc(-c2cccc(NC(=O)c3ccc(C(C)(C)C)cc3)c2C)nn(C)c1=O [Compound I-23, 4-tert-Butyl-N-{2-methyl-3-[1-methyl-5-(3-methyl-ureido)-6-oxo-1,6-dihydro-pyridazin-3-yl]-phenyl}-benzamide] | 287 to 288 |  | 7.00

Structure (SMILES) | melting point [°C] | pIC50 ([1]; Table II pyridinones) | pIC50 ([1]; Table I pyridazinones)
Cc1c(NC(=O)c2ccc(C(C)(C)C)cc2)cccc1-c1cc(Nc2ccncn2)c(=O)n(C)n1 [Compound I-4] | 249 to 250 |  | 6.68
Cc1c(NC(=O)c2ccc(C(C)(C)C)cc2)cccc1-c1cc(Nc2ccnc(N3CCN(C)CC3)n2)c(=O)n(C)n1 [Compound I-11] | 220 to 222 |  | 7.11
Cc1c(NC(=O)c2ccc(C(C)(C)O)cc2)cccc1-c1cc(Nc2ccc(C(=O)N3CCN(C)CC3)cn2)c(=O)n(C)n1 [Compound I-5] | 167.5 to 168.5 |  | 6.91
CNC(=O)Nc1cc(-c2cccc(NC(=O)N3Cc4ccccc4C3)c2C)cn(C)c1=O [II-17, 1,3-Dihydro-isoindole-2-carboxylic acid{2-methyl-3-[1-methyl-5-(3-methyl-ureido)-6-oxo-1,6-dihydro-pyridin-3-yl]-phenyl}-amide] | 264 to 265 | 6.18 | 
Cc1c(NC(=O)c2ccc(N(C)C)cc2)cccc1-c1cc(Nc2ccc(C(=O)N3CCC(O)CC3)cn2)c(=O)n(C)n1 [Compound I-28, 4-Dimethylamino-N-(3-{5-[5-(4-hydroxy-piperidine-1-carbonyl)-pyridin-2-ylamino]-1-methyl-6-oxo-1,6-dihydro-pyridazin-3-yl}-2-methyl-phenyl)-benzamide] |  |  | 7.47
Cn1nc(-c2cccc(CC(=O)NCCC(O)C(C)(C)C)c2)cc(Nc2ccc(C(=O)N3CCOCC3)cn2)c1=O (stereo not drawn) [Compound I-29] |  |  | 5.77
CNC(=O)Nc1cc(-c2cccc(NC(=O)c3ccc(N(C)C)nc3)c2C)cn(C)c1=O [II-15, 6-Dimethylamino-N-{2-methyl-3-[1-methyl-5-(3-methyl-ureido)-6-oxo-1,6-dihydro-pyridin-3-yl]-phenyl}-nicotinamide] |  | 5.64 | 
CCn1nc(Nc2cc(-c3cccc(NC(=O)c4ccc(C5CC5)cc4)c3CO)cn(C)c2=O)ccc1=O [II-91] |  | 7.18 | 
Cn1cc(-c2cccc(NC(=O)c3ccccc3)c2CO)cc(Nc2ccc(C(=O)N3CCOCC3)cn2)c1=O [II-67] |  | 6.11 | 
CCNC(=O)Nc1cc(-c2cccc(NC(=O)c3ccc(C(C)(C)C)cc3)c2C)cn(C)c1=O [II-5] |  | 7.89 | 
Cn1cc(-c2cccc(NC(=O)c3ccc(C4(C(F)F)CC4)cc3)c2CO)cc(Nc2ccc(C(=O)N3CCOCC3)cn2)c1=O [II-72, 4-(1-Difluoromethyl-cyclopropyl)-N-(2-hydroxymethyl-3-{1-methyl-5-[5-(morpholine-4-carbonyl)-pyridin-2-ylamino]-6-oxo-1,6-dihydro-pyridin-3-yl}-phenyl)-benzamide] |  | > 8.00 | 
Cn1cc(-c2cccc(NC(=O)N3Cc4ccccc4C3)c2CO)cc(Nc2ccc(C(=O)N3CCOCC3)cn2)c1=O [II-102] |  | > 8.00 | 
CC(=O)N1CCN(C(=O)Cc2cccc(-c3cc(Nc4ccc(C(=O)N5CCOCC5)cn4)c(=O)n(C)n3)c2)CC1 [Compound I-44] |  |  | 4.21
C#Cc1ccc(C(=O)Nc2cccc(-c3cc(Nc4ccc(C(=O)N5CCOCC5)cn4)c(=O)n(C)c3)c2CO)cc1 [II-69] |  | 7.12 | 
CC(C)n1nc(Nc2cc(-c3cccc(NC(=O)c4ccc(C5CC5)cc4)c3CO)cn(C)c2=O)ccc1=O [II-88] |  | 6.85 | 
Cn1nc(-c2cccc(CC(=O)c3ccc(C(C)(C)C)cc3)c2)cc(Nc2ccc(C(=O)N3CCOCC3)cn2)c1=O [Compound I-37, 6-{3-[2-(4-tert-Butyl-phenyl)-2-oxo-ethyl]-phenyl}-2-methyl-4-[5-(morpholine-4-carbonyl)-pyridin-2-ylamino]-2H-pyridazin-3-one] |  |  | 6.69
CNC(=O)Nc1cc(-c2cccc(CC(=O)N3Cc4cc(Cl)c(Cl)cc4C3)c2)cn(C)c1=O [II-31] |  | 4.83 | 
Cc1c(NC(=O)c2ccc(C(C)(C)O)cc2)cccc1-c1cc(Nc2ccc(C(=O)N3CCOCC3)cn2)c(=O)n(C)n1 [Compound I-15] |  |  | 6.43
CNC(=O)Nc1cc(-c2cccc(NC(=O)c3ccc(C(C)(C)C)cc3)c2C)cn(C)c1=O [II-4, 4-tert-Butyl-N-{2-methyl-3-[1-methyl-5-(3-methyl-ureido)-6-oxo-1,6-dihydro-pyridin-3-yl]-phenyl}-benzamide] | 262 to 264 |  | 
